Source: patent US20100190199A1, “GPR30 ESTROGEN RECEPTOR IN BREAST AND OVARIAN CANCERS” (Rhode Island Hospital, priority 2008, published 2010)

Assays:
[1] = system: alpha and beta ERs; conditions: cited from earlier work
[2] = biological target: T1, GPR30 (Homo sapiens, UniProt Q99527); test: Estrogen-mediated fibronectin (FN) matrix assembly by human breast cancer cells; type: cell-based; conditions: stimulation of human breast cancer cells
T1 construct: human SKBR3 breast cancer cells (Erα^−, ERβ^−, GPR30^+); endogenous in cells

[3] = system: EGFR; conditions: breast cancer cells; behave similarly to estradiol; cited from earlier work
[4] = system: ER+ ovarian cancer; conditions: ovarian cancer patients, second-line therapy, Phase II; cited from earlier work

T1 sequence (Q99527 whole entry): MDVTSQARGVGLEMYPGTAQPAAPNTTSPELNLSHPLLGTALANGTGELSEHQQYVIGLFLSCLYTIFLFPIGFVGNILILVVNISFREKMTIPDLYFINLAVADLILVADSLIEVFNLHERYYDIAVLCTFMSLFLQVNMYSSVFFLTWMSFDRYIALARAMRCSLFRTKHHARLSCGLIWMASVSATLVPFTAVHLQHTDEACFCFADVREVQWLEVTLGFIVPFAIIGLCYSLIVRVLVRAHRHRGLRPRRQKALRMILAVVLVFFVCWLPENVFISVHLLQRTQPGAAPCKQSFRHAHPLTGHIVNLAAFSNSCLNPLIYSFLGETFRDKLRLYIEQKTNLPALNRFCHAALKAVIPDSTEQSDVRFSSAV

Row | Structure (SMILES) | Binding preference ERα versus ERβ [1] | EGFR activation [3] | further results
1 | C[C@]12CC[C@@H]3c4ccc(O)cc4CC[C@H]3[C@@H]1CC[C@@H]2O [17β-estradiol] | binds equally well to both receptors |  | 
2 | C[C@]12CC[C@@H]3c4ccc(O)cc4C[C@@H](CCCCCCCCC[S+]([O-])CCCC(F)(F)C(F)(F)F)[C@H]3[C@@H]1CC[C@@H]2O (stereo partly drawn) [ICI 182,780] |  | capable of triggering EGFR activation in breast cancer cells | FN matrix assembly: recruitment of FN-engaged integrin α5β1 conformers to fibrillar adhesions and synthesis of FN fibrils [2]: resulted in the recruitment of FN-engaged integrin α5β1 conformers to fibrillar adhesions and the synthesis of FN fibrils
3 | N#Cc1ccc(C(c2ccc(C#N)cc2)n2cncn2)cc1 [Letrozole] |  |  | Clinical response measured by ovarian cancer serum marker CA-125 [4]: stable disease
4 | O=C(c1ccc(OCCN2CCCCC2)cc1)c1c(-c2ccc(O)cc2)sc2cc(O)ccc12 [raloxifene] | bind preferentially to the alpha receptor |  | 
5 | CC/C(=C(\c1ccccc1)c1ccc(OCCN(C)C)cc1)c1ccccc1 [tamoxifen] |  | capable of triggering EGFR activation in breast cancer cells | 
